The source of these data is ChEMBL document CHEMBL3853314, “G-Protein-Coupled Receptor Kinase 2 (GRK2) Inhibitors: Current Trends and Future Perspectives” (J Med Chem, 2016).

SMILES strings stand for the structures. Structures can show the parent of a compound that is named as a salt. Peptide text beside a SMILES is read from it.

Assay [1] in a line: Inhibition of PKA (unknown origin) using LRRASLG as substrate incubated for 30 mins by ADP-Glo assay. On the set-up: species or system Homo sapiens.
The target in assay [2] is Beta-adrenergic receptor kinase 1 (Bos taurus, UniProt P21146, S670A). Kind of assay: Inhibition of bovine GRK2 expressed in Sf9 insect cells assessed as decrease in phosphorylation of urea-washed bovine rod outer segments in presence of Gbetagamma subunits and [gamma-32P]-ATP after 5 to 60 mins by SDS-PAGE analysis.
Assay [3] has as its target G protein-coupled receptor kinase 5 (Homo sapiens, UniProt P34947). Kind of assay: Inhibition of recombinant human GRK5 expressed in Sf9 insect cells assessed as decrease in phosphorylation of urea-washed bovine rod outer segments in presence of Gbetagamma subunits and [gamma-32P]-ATP after 5 to 60 mins by SDS-PAGE analysis.
In assay [4] the target is T1, G protein-coupled receptor kinase 3 (Bos taurus, UniProt P26818).
T1 sequence (P26818 whole entry): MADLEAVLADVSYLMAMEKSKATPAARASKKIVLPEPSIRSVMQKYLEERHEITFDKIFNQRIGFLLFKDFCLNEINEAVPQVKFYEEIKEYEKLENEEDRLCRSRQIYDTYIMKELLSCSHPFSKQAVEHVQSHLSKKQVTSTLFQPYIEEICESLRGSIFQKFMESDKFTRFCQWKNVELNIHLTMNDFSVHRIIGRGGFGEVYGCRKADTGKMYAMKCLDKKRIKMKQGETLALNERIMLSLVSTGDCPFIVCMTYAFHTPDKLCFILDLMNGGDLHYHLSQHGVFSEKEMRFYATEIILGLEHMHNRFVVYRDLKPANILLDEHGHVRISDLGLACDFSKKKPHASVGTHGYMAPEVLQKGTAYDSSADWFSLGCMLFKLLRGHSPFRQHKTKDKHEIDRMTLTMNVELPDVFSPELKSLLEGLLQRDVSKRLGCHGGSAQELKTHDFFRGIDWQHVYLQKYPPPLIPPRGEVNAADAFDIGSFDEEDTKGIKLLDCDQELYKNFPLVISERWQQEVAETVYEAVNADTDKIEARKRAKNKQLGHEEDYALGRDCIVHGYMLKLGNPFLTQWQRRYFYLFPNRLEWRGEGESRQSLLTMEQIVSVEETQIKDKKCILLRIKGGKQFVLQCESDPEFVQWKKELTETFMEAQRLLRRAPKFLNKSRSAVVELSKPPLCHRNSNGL
Description: Inhibition of recombinant bovine GRK3 expressed in Sf9 insect cells assessed as decrease in phosphorylation of urea-washed bovine rod outer segments in presence of Gbetagamma subunits and [gamma-32P]-ATP after 5 to 60 mins by SDS-PAGE analysis.

Assay [5] is described as follows: Inhibition of human PKA catalytic subunit.
The target in assay [6] is T2, Beta-adrenergic receptor kinase 1 (Bos taurus, UniProt P21146).
T2 sequence (P21146 whole entry): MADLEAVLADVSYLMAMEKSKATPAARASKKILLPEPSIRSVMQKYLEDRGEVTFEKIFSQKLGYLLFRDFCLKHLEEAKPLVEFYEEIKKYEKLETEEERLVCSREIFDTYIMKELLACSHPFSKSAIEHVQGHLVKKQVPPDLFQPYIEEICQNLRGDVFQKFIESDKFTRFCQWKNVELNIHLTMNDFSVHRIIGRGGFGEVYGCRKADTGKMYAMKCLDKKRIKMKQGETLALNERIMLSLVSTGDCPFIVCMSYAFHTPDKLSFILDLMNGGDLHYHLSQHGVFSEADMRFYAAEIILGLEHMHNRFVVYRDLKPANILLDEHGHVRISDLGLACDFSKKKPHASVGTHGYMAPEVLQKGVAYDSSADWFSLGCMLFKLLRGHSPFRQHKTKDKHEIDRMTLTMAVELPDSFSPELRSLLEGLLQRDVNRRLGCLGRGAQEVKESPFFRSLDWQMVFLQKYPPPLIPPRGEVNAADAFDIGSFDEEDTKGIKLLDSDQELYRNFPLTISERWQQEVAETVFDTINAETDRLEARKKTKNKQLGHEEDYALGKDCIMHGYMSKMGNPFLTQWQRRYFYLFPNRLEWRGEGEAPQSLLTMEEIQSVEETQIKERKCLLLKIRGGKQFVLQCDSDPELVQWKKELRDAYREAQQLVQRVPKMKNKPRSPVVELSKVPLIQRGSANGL
Kind of assay: Inhibition of bovine cerebral cortex GRK2 assessed as decrease in rhodopsin phosphorylation by SDS-PAGE analysis.

The target of assay [7] is Protein kinase C alpha type (Homo sapiens, UniProt P17252). Description: Inhibition of recombinant full-length human N-terminal GST tagged PKCalpha expressed in Baculovirus infected Sf9 insect cells using KRREILSRRPSYR as substrate incubated for 30 mins by ADP-Glo assay. In general terms: ADP-Glo turns the ADP formed in a reaction into a luminescent signal.
In assay [8] the target is T3, Rhodopsin kinase GRK1 (Bos taurus, UniProt P28327).
T3 sequence (P28327 whole entry): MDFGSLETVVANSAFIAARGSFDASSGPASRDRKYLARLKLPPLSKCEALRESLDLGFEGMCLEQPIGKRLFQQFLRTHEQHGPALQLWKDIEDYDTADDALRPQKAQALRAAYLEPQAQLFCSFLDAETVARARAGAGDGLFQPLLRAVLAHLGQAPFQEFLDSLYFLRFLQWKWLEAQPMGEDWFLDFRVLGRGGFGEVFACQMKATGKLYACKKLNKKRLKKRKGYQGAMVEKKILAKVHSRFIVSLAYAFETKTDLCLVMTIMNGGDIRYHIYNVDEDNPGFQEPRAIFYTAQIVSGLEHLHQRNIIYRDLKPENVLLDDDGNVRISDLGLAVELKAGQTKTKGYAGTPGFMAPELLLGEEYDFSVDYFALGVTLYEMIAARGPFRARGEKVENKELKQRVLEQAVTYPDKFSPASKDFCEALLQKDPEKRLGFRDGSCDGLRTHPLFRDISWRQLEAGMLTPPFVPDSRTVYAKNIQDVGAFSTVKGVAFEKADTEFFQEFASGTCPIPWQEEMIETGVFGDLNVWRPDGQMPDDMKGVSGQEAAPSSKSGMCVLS
Description: Inhibition of bovine GRK1 (1 to 535 residues) assessed as decrease in phosphorylation of tubulin after 5 mins by SDS-PAGE analysis.

Assay [9] concerns the target G protein-coupled receptor kinase 5 (Bos taurus, UniProt P43249). Kind of assay: Inhibition of bovine GRK5 assessed as decrease in phosphorylation of tubulin after 5 mins by SDS-PAGE analysis.
Assay [10] addresses Beta-adrenergic receptor kinase 1 (Homo sapiens, UniProt P25098, S670A). Kind of assay: Inhibition of human GRK2 S670A mutant assessed as decrease in phosphorylation of light-activated bovine rod outer segments after 5 mins by SDS-PAGE analysis.

Sequence of G protein-coupled receptor kinase 5 (Homo sapiens, UniProt P34947) (P34947 whole entry): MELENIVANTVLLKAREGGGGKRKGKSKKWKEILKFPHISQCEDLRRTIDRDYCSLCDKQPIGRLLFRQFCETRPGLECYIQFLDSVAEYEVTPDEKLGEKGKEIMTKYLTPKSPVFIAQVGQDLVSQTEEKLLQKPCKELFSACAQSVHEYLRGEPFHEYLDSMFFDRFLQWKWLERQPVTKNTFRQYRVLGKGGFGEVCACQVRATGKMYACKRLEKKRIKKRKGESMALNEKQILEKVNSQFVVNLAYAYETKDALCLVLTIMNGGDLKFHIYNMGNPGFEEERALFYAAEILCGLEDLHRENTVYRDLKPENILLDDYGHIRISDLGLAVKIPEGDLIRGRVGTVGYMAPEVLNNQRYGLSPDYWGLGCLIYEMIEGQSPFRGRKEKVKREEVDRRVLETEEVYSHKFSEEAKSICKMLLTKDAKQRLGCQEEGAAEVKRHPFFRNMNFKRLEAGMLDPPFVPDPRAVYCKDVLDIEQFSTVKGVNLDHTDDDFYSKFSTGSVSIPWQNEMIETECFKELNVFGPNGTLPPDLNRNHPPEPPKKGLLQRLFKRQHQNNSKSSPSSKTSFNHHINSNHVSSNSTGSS
Sequence of Beta-adrenergic receptor kinase 1 (Bos taurus, UniProt P21146, S670A) (P21146 whole entry S670A): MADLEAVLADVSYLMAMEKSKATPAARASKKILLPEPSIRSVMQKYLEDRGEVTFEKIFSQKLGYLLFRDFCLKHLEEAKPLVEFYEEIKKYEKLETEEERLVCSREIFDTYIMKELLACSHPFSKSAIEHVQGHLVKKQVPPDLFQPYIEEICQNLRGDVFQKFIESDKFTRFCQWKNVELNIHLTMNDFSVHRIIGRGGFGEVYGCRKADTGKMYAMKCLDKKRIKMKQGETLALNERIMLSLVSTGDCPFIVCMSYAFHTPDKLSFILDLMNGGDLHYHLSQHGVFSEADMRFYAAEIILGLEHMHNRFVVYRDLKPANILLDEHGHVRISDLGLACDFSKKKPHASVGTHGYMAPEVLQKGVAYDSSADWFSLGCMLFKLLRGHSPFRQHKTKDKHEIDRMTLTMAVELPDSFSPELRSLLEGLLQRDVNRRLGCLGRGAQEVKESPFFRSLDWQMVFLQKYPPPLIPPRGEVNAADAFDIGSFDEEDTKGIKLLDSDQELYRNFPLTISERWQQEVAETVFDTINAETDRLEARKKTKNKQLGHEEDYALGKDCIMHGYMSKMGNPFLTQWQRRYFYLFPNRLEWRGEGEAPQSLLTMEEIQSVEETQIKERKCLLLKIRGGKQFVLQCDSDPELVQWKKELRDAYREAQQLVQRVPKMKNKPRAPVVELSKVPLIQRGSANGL
Sequence of Beta-adrenergic receptor kinase 1 (Homo sapiens, UniProt P25098, S670A) (P25098 whole entry S670A): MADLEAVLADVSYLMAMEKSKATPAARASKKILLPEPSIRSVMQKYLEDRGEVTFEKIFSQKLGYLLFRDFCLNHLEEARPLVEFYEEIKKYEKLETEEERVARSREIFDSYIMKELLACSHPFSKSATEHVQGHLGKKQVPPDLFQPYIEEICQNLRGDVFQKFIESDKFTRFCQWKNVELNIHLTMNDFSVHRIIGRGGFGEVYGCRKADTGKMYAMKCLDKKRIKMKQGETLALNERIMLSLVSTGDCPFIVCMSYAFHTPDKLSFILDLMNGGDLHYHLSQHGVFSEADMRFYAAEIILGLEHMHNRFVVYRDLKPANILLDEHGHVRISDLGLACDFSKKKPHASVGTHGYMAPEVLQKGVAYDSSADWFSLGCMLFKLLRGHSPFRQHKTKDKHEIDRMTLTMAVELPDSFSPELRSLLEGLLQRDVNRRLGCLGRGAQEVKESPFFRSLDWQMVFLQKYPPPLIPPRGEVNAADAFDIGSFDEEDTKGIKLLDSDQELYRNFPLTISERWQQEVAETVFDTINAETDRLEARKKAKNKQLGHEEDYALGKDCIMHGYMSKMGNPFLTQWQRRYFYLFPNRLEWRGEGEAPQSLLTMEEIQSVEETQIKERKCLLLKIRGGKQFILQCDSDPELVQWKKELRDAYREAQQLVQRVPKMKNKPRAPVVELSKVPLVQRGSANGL
Sequence of G protein-coupled receptor kinase 5 (Bos taurus, UniProt P43249) (P43249 whole entry): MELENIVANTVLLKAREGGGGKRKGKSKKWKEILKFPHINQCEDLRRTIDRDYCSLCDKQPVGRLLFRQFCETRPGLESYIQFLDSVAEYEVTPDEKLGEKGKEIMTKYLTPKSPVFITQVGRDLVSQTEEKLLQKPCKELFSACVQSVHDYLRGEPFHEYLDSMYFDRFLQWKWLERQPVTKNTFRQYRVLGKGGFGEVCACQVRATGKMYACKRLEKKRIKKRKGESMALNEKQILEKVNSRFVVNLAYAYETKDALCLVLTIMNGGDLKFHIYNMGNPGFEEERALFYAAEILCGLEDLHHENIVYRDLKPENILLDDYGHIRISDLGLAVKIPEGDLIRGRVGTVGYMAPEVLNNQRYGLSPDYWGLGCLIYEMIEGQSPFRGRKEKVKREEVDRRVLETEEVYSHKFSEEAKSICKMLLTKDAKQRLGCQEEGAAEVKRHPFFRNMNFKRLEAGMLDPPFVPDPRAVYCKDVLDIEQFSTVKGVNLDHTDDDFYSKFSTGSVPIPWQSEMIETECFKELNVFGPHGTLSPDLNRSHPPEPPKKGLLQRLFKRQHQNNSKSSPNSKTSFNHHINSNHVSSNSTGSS

One may read the IC50 as the concentration needed to halve the response being measured. Regarding `CC1=C(C(=O)Nc2ccc3[nH]ncc3c2)C(c2ccc3ccccc3c2)CC(=O)N1` (configuration not stated) [GSK-270822A], inhibition in assay [1] was half-maximal at 50.1 µM (IC50).

Turning to `CC[C@H](C)[C@H](NC(=O)[C@H](C)NC(=O)[C@@H](NC(=O)[C@@H](N)CCCCN)[C@@H](C)O)C(=O)N[C@@H](C)C(=O)N[C@@H](CCCCN)C(=O)N[C@@H](Cc1ccccc1)C(=O)N[C@@H](CCC(=O)O)C(=O)N[C@@H](CCCNC(=N)N)C(=O)N[C@@H](CC(C)C)C(=O)N[C@@H](CCC(N)=O)C(=O)N[C@H](C(=O)N[C@H](C(=O)N[C@H](C(=O)N[C@@H](CC(N)=O)C(=O)N[C@@H](Cc1ccc(O)cc1)C(=O)N[C@@H](Cc1ccccc1)C(=O)N[C@H](C(=O)N[C@H](C(=O)N[C@@H](CO)C(=O)N[C@@H](CCCCN)C(=O)O)[C@@H](C)O)[C@@H](C)CC)[C@@H](C)O)C(C)C)[C@@H](C)O` (H-KTAIAKFERLQTVTNYFITSK-OH), the IC50 in assay [2] stood at 36.5 µM; in assay [3], 61.3 µM; in assay [4] it was 30.4 µM.

Molecule `Cn1c(CNc2cccc(C(=O)NCc3ccccc3C(F)(F)F)c2)nnc1-c1ccncc1` returned an IC50 in assay [5] of more than 2 µM.

Regarding `O=S(=O)(O)O[C@H]1[C@H](OS(=O)(=O)O)[C@@H](OS(=O)(=O)O)[C@H](OS(=O)(=O)O)[C@@H](OS(=O)(=O)O)[C@H]1OS(=O)(=O)O`, the IC50 in [6] is 13.5 µM.

For `CC[C@H](C)[C@H](NC(=O)[C@H](Cc1ccccc1)NC(=O)[C@H](Cc1ccc(O)cc1)NC(=O)[C@H](CC(N)=O)NC(=O)[C@@H](NC(=O)[C@@H](NC(=O)[C@@H](NC(=O)[C@H](CCC(N)=O)NC(=O)[C@H](CC(C)C)NC(=O)[C@H](CCCNC(=N)N)NC(=O)[C@H](CCC(=O)O)NC(=O)[C@H](Cc1ccccc1)NC(=O)[C@H](CCCCN)NC(=O)[C@H](C)N)[C@@H](C)O)C(C)C)[C@@H](C)O)C(=O)N[C@H](C(=O)N[C@@H](CO)C(=O)N[C@@H](CCC(=O)O)C(=O)O)[C@@H](C)O` (H-AKFERLQTVTNYFITSE-OH), the IC50 in assay [2] came to 0.6 µM; in assay [3], 1.6 µM; in assay [4], 1.5 µM.

Turning to `CC1=C(C(=O)Nc2ccc3[nH]ncc3c2)C(c2ccc(F)cc2)NC(=O)N1` (configuration not stated) [GSK-180736A], the IC50 in assay [1] was more than 500 µM.

For `Fc1ccc([C@@H]2CCNC[C@H]2COc2ccc3c(c2)OCO3)cc1` [PAROXETINE HYDROCHLORIDE], the IC50 in assay [1] is more than 45 µM; in [7] it was 220 µM.

For `CC[C@H](C)[C@H](NC(=O)[C@H](Cc1ccccc1)NC(=O)[C@H](Cc1ccc(O)cc1)NC(=O)[C@H](CC(N)=O)NC(=O)[C@@H](NC(=O)[C@@H](NC(=O)[C@@H](NC(=O)[C@H](CCC(N)=O)NC(=O)[C@H](CC(C)C)NC(=O)[C@H](CCCNC(=N)N)NC(=O)[C@H](CCC(=O)O)NC(=O)[C@H](Cc1ccccc1)NC(=O)[C@H](CCCCN)NC(=O)[C@H](C)N)[C@@H](C)O)C(C)C)[C@@H](C)O)C(=O)N[C@H](C(=O)N[C@@H](CO)C(=O)N[C@@H](CCCCN)C(=O)O)[C@@H](C)O` (H-AKFERLQTVTNYFITSK-OH), the IC50 turned out to be 32.2 µM in assay [2], 9.4 µM in [3] and 55.5 µM in assay [4].

With `CC[C@H](C)[C@H](NC(=O)[C@H](C)NC(=O)[C@@H](NC(=O)[C@@H](N)CCCCN)[C@@H](C)O)C(=O)N[C@@H](C)C(=O)N[C@@H](CCCCN)C(=O)N[C@@H](Cc1ccccc1)C(=O)N[C@@H](CCC(=O)O)C(=O)N[C@@H](CCCNC(=N)N)C(=O)N[C@@H](CC(C)C)C(=O)N[C@@H](CCC(N)=O)C(=O)N[C@H](C(=O)N[C@H](C(=O)N[C@H](C(=O)N[C@@H](CC(N)=O)C(=O)O)[C@@H](C)O)C(C)C)[C@@H](C)O` (H-KTAIAKFERLQTVTN-OH), the IC50 was 5.6 µM in assay [2], 2.1 µM in assay [3] and 11.6 µM in assay [4].

For the molecule `CC1=C(C(=O)Nc2cc(Cl)c3[nH]ncc3c2)C(c2ccc(C(F)(F)F)cc2)CC(=O)N1` (configuration not stated) [GSK-466317A], the IC50 in [1] was 12.6 µM; in [8] it was 1000 µM.

Regarding `CC1=C(C(=O)Nc2ccc3[nH]ncc3c2)C(c2ccc(Cl)c(Cl)c2)CC(=O)N1` (configuration not stated) [GSK-299115A], in [1], the IC50 turned out to be 63.1 µM.

Take `O=P(O)(O)O[C@@H]1[C@H](O)[C@H](O)[C@@H](O)[C@H](O)[C@H]1O`: the IC50 in assay [6] turned out to be 3600 µM.

As for `CC1=C(C(=O)Nc2ccc3[nH]ncc3c2)C(c2ccc(F)cc2)N=C(c2ccc(C(F)(F)F)cc2)N1` (configuration not stated), the IC50 is 200 µM in assay [1], more than 1000 µM in [8] and 631 µM in assay [9].

Regarding `O=C1NCc2ccc(OC[C@@H]3CNCC[C@H]3c3ccc(F)cc3)cc21`, the 50% inhibitory concentration (IC50) in assay [10] amounted to 6.3 µM.

Regarding `CC[C@H](C)[C@H](NC(=O)[C@H](C)NC(=O)[C@@H](NC(=O)[C@@H](N)CCC(=O)O)[C@@H](C)O)C(=O)N[C@@H](C)C(=O)N[C@@H](CCCCN)C(=O)N[C@@H](Cc1ccccc1)C(=O)N[C@@H](CCC(=O)O)C(=O)N[C@@H](CCCNC(=N)N)C(=O)N[C@@H](CC(C)C)C(=O)N[C@@H](CCC(N)=O)C(=O)N[C@H](C(=O)N[C@H](C(=O)N[C@H](C(=O)N[C@@H](CC(N)=O)C(=O)N[C@@H](Cc1ccc(O)cc1)C(=O)N[C@@H](Cc1ccccc1)C(=O)N[C@H](C(=O)N[C@H](C(=O)N[C@@H](CO)C(=O)N[C@@H](CCCCN)C(=O)O)[C@@H](C)O)[C@@H](C)CC)[C@@H](C)O)C(C)C)[C@@H](C)O` (H-ETAIAKFERLQTVTNYFITSK-OH), the results for the IC50 in assay [2], in [3] and in assay [4] were 52.2 µM, 7.4 µM and 22.6 µM, respectively.

On to `CC[C@H](C)[C@H](NC(=O)[C@H](C)NC(=O)[C@@H](NC(=O)[C@@H](N)CCCCN)[C@@H](C)O)C(=O)N[C@@H](C)C(=O)N[C@@H](CCCCN)C(=O)N[C@@H](Cc1ccccc1)C(=O)N[C@@H](CCC(=O)O)C(=O)N[C@@H](CCCNC(=N)N)C(=O)N[C@@H](CC(C)C)C(=O)N[C@@H](CCC(N)=O)C(=O)N[C@H](C(=O)N[C@H](C(=O)N[C@H](C(=O)N[C@@H](CC(N)=O)C(=O)N[C@@H](Cc1ccc(O)cc1)C(=O)N[C@@H](Cc1ccccc1)C(=O)N[C@H](C(=O)N[C@H](C(=O)N[C@@H](CO)C(=O)N[C@@H](CCC(=O)O)C(=O)O)[C@@H](C)O)[C@@H](C)CC)[C@@H](C)O)C(C)C)[C@@H](C)O` (H-KTAIAKFERLQTVTNYFITSE-OH), for which the IC50 worked out at 4.4 µM in [2], 3.9 µM in assay [3] and 6.1 µM in assay [4].
